The results in this text go back to paper PMC12383972, “Oral Pharmacokinetic Evaluation of a Microemulsion-Based Delivery System for Novel A190 Prodrugs” (Biomolecules, 2025).

The nature of this series: Parallel artificial membrane permeability assay (PAMPA). The note with it: PBS pH 6.8, 200 µg/mL donor, 5 h, room temperature. The class given is in vitro ADME. On the procedure: Parallel artificial membrane permeability assay (PAMPA) is a widely used screening method to predict the passive intestinal permeability using a phospholipid coated lipophilic membrane which simulates the properties of the intestinal wall. The in vitro intestinal membrane permeability of free A190-PD-60 (dispersed in PBS pH 6.8), A190-PD-60 dispersion (dispersed in a mixture of 1:1 v/v methylcellulose/Tween 80), and A190-PD-60-ME were evaluated using a PAMPA plate (BD BioSciences, San Jose, CA, USA), as described previously. The samples for donor chamber were prepared by diluting free A190-PD-60, A190-PD-60 dispersion, and A190-PD-60-ME with PBS pH 6.8 to a final concentration of 200 µg/mL. […] The concentration of A190-PD-60 which permeated into the acceptor chamber was measured using a HPLC-UV system. The effective permeability coefficient (Pe) was then calculated using the following equation:Pe = −ln(1 − CA[t]/Cequilibrium)/(A × [1/VD + 1/VA] × t)(1) where Pe is the permeability (cm/s), A is the effective filter area (0.228 cm^2), VD is the volume of the donor well (0.2 mL), VA is the volume of the receptor well (0.3 mL), t is the total time of incubation in seconds, CA(t) denotes the concentration of drug in the receptor well at time t, and Cequilibrium represents (CD[t] × VD + CA[t] × VA)/(VD + VA), where CD(t) denotes the concentration of drug in the donor well at time t.
In general terms: PAMPA measures passive passage across an artificial lipid membrane.

As for `Cc1cc(CNc2cccc(C(=O)OCc3oc(=O)oc3C)c2)ccc1OCc1ccc(F)cc1` [A190-PD-60, (5-Methyl-2-oxo-1,3-dioxol-4-yl)methyl3-((4-((4-Fluorobenzyl)oxy)-3-methylbenzyl)amino)benzoate], the “Effective Permeability Across Artificial Membrane (Pe)” value is listed as < 0.1 ×10^−6, cm/s. The “Effective Permeability Across Artificial Membrane (Pe)” value (listed as A190-PD-60 in PBS) is listed as “BLD”.
